Laboratory results as given in patent US5247084A, “Derivatives of p-guanidinobenzoic acid” (priority 1985, dated 1993).
pIC50: −log10 of the molar value. Like-named read-outs stand apart in the source and are kept apart here.

Biological target: T1, elastase from human neutrophil (Homo sapiens, UniProt P08246)
T1 construct: using elastase from human neutrophil; from tissue; host or cells: human neutrophil
T1 sequence (P08246 30-247 limits assumed): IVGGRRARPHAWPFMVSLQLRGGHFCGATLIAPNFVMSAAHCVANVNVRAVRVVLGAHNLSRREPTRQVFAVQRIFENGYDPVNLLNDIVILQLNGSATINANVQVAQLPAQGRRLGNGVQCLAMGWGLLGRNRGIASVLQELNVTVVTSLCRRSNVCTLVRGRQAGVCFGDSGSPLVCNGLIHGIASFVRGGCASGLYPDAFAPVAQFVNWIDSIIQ
Test: Inhibitory effect on elastase (spectrophotometric method, substrate Suc-Ala-Pro-Ala-pNA)
Format: biochemical
Conditions: for inhibition at 50 µg/mL: at 50 μg/ml, read-out: Elastase Inhibitory Effect, Inhibition %

[1] = Y represents an oxygen atom, pH 8.0, 37° C., 30 minutes, read-out: Inhibitory Effect on Elastase, IC50
[2] = Y represents a sulfur atom, pH 8.0, 37° C., 30 minutes, read-out: Elastase Inhibitory Effect, IC50

Procedure: The test was carried out by the slight modification of the method of Bieth et al [see Biochem. Med., 75, 350 (1974)] using elastase from human neutrophil.
The reaction mixture consisted of 1 mM Suc-Ala-Pro-Ala-pNA (dissolving in N-methylpyrrolidone to the concentration of 100 mM, and then adding 1/100 amount of the solution to the reaction mixture.), 0.1 M buffer solution of tris-hydrochloric acid (pH 8.0), 0.2 M sodium chloride aqueous solution, the sample solution of various concentrations and enzyme solution in a final volume of 1.0 ml was incubated at 37° C. for 30 minutes.
The reaction was stopped by the addition of 100 μl of 50% acetic acid into the reaction mixture, and then p-nitro anilide released was measured on absorbance of 405 nm.
Inhibition percentage of the test compounds was caliculated by the following equation: [formula]

N=C(N)Nc1ccc(C(=O)Oc2cc(OC(=O)c3ccc(NC(=N)N)cc3)cc(C(=O)NCc3ccccc3)c2)cc1 [Example 85]
inhibition at 100 µM (Y represents an oxygen atom): 27%

N=C(N)Nc1ccc(C(=O)Oc2ccc([N+](=O)[O-])cc2)cc1 [Example 108]
pIC50 [1]: 3.92 | inhibition at 100 µM (Y represents an oxygen atom): 60.1%

N=C(N)Nc1ccc(C(=O)Sc2ccc(Cl)cc2)cc1 [Example 134]
inhibition at 50 µg/mL (Y represents a sulfur atom): 69.5%

CC(=O)c1cccc(OC(=O)c2ccc(NC(=N)N)cc2)c1 [Example 48]
inhibition at 100 µM (Y represents an oxygen atom): 4.1%

CC(C)OC(=O)c1ccc(Cl)cc1OC(=O)c1ccc(NC(=N)N)cc1 [Example 20]
pIC50 [1]: 4.85

N=C(N)Nc1ccc(C(=O)Sc2ccc([N+](=O)[O-])cc2)cc1 [Example 145]
pIC50 [2]: 4.74 | inhibition at 50 µg/mL (Y represents a sulfur atom): 64.2%

COc1cccc(SC(=O)c2ccc(NC(=N)N)cc2)c1 [Example 129]
pIC50 [2]: 5.19 | inhibition at 50 µg/mL (Y represents a sulfur atom): 89.2%

N=C(N)Nc1ccc(C(=O)Oc2ccc(C(=O)c3ccccc3)cc2Cl)cc1 [Example 56]
pIC50 [1]: 4.32 | inhibition at 100 µM (Y represents an oxygen atom): 57.1%

COc1cc(O)cc(OC(=O)c2ccc(NC(=N)N)cc2)c1 [Example 110]
pIC50 [1]: 4.70

N=C(N)Nc1ccc(C(=O)Oc2cc(C(=O)O)cc(C(=O)O)c2)cc1 [Example 148]
inhibition at 100 µM (Y represents an oxygen atom): 25%

N=C(N)Nc1ccc(C(=O)Oc2cc(OC(=O)c3ccc(NC(=N)N)cc3)cc(OC(=O)c3ccc(NC(=N)N)cc3)c2)cc1 [Example 65]
inhibition at 100 µM (Y represents an oxygen atom): 38%

N=C(N)Nc1ccc(C(=O)Oc2c(Cl)cccc2Cl)cc1 [Example 38]
pIC50 [1]: 5.70 | inhibition at 100 µM (Y represents an oxygen atom): 89.9%

CCS(=O)(=O)Oc1cc(C)cc(OC(=O)c2ccc(NC(=N)N)cc2)c1 [Example 78]
pIC50 [1]: 4.57

COc1ccc(OC(=O)c2ccc(NC(=N)N)cc2)cc1 [Example 9]
inhibition at 100 µM (Y represents an oxygen atom): 44.4%

N=C(N)Nc1ccc(C(=O)Oc2cc(Cl)cc(CO)c2)cc1 [Example 150, P-guanidinobenzoic acid 3-chloro-5-hydroxymethylphenylester acetate]
pIC50 [1]: 5.35

N=C(N)Nc1ccc(C(=O)Oc2cc(Cl)cc(C(=O)Nc3ccc(S(N)(=O)=O)cc3)c2)cc1 [Example 102]
pIC50 [1]: 5.89

N=C(N)Nc1ccc(C(=O)Oc2cccc(S(=O)(=O)N3CCCCC3)c2)cc1 [Example 99]
inhibition at 100 µM (Y represents an oxygen atom): 41%

CCN(CC)S(=O)(=O)c1ccc(NC(=O)c2cc(Cl)cc(OC(=O)c3ccc(NC(=N)N)cc3)c2)cc1 [Example 104]
pIC50 [1]: 5.96

N=C(N)Nc1ccc(C(=O)Oc2cccc(Br)c2)cc1 [Example 43]
pIC50 [1]: 5.22 | inhibition at 100 µM (Y represents an oxygen atom): 91.7%

N=C(N)Nc1ccc(C(=O)Oc2cc(Cl)cc(OS(=O)(=O)c3ccccc3)c2)cc1 [Example 77]
pIC50 [1]: 6.10

N=C(N)Nc1ccc(C(=O)Oc2cc(Cl)ccc2C(=O)O)cc1 [Example 149]
pIC50 [1]: 4.22

N=C(N)Nc1ccc(C(=O)Oc2c(F)c(F)c(F)c(F)c2F)cc1 [Example 33]
pIC50 [1]: 5.24 | inhibition at 100 µM (Y represents an oxygen atom): 92.1%

N=C(N)Nc1ccc(C(=O)Sc2ccc(CC(=O)O)cc2)cc1 [Example 140]
inhibition at 50 µg/mL (Y represents a sulfur atom): 47.8%

N=C(N)Nc1ccc(C(=O)Oc2cccc(NC(=N)N)c2)cc1 [Example 116]
inhibition at 100 µM (Y represents an oxygen atom): 20%

COc1ccccc1SC(=O)c1ccc(NC(=N)N)cc1 [Example 128]
pIC50 [2]: 4.68 | inhibition at 50 µg/mL (Y represents a sulfur atom): 79.8%

CCN(CC)S(=O)(=O)c1cc(Cl)cc(OC(=O)c2ccc(NC(=N)N)cc2)c1 [Example 95]
pIC50 [1]: 5.32

N=C(N)Nc1ccc(C(=O)Oc2cc(Cl)cc(OC(=O)c3ccc(NC(=N)N)cc3)c2)cc1 [Example 68]
pIC50 [1]: 6.22

COc1cc(OC(=O)c2ccc(NC(=N)N)cc2)cc(C(=O)N2CCS(=O)(=O)C2)c1 [Example 122]
pIC50 [1]: 4.92

N=C(N)Nc1ccc(C(=O)Oc2cc(Cl)cc(Cl)c2)cc1 [Example 1, p-guanidinobenzoic acid 3,5-dichlorophenyl ester methanesulfonate]
pIC50 [1]: 6.40 | inhibition at 100 µM (Y represents an oxygen atom): 97%

N=C(N)Nc1ccc(C(=O)Sc2cccc(Cl)c2)cc1 [Example 133]
pIC50 [2]: 6.52 | inhibition at 50 µg/mL (Y represents a sulfur atom): 81.2%

Cc1ccccc1OC(=O)c1ccc(NC(=N)N)cc1 [Example 2]
inhibition at 100 µM (Y represents an oxygen atom): 20.2%

N=C(N)Nc1ccc(C(=O)Oc2cc(Cl)ccc2C(=O)CC2CCCC2)cc1 [Example 58]
pIC50 [1]: 5.72

N=C(N)Nc1ccc(C(=O)Oc2ccc(C(=O)c3ccccc3)cc2)cc1 [Example 55]
inhibition at 100 µM (Y represents an oxygen atom): 33.3%

COC(=O)c1cc(OC(=O)c2ccc(NC(=N)N)cc2)cc(OC(=O)c2ccc(NC(=N)N)cc2)c1 [Example 67]
pIC50 [1]: 4.15

N=C(N)Nc1ccc(C(=O)Oc2cc(Cl)cc(COc3ccc(S(=O)(=O)N4CCOCC4)cc3)c2)cc1 [Example 151, P-guanidinobenzoic acid 3-chloro-5-(4-morpholinosulfonyl)phenoxymethylphenylester acetate]
pIC50 [1]: 5.85

CNC(=O)c1cc(O)cc(OC(=O)c2ccc(NC(=N)N)cc2)c1 [Example 114]
inhibition at 100 µM (Y represents an oxygen atom): 22%

CCN(CC)S(=O)(=O)c1ccc(OC(=O)c2ccc(NC(=N)N)cc2)cc1 [Example 93]
pIC50 [1]: 4.24

N=C(N)Nc1ccc(C(=O)Oc2cc(Cl)cc(C(=O)N3CCS(=O)(=O)C3)c2)cc1 [Example 123]
pIC50 [1]: 5.51

N=C(N)Nc1ccc(C(=O)Oc2cccc(S(N)(=O)=O)c2)cc1 [Example 89]
pIC50 [1]: 4.19

N=C(N)Nc1ccc(C(=O)Oc2cc(NC(=N)N)ccc2Cl)cc1 [Example 118]
pIC50 [1]: 4.33

CCN(CC)S(=O)(=O)c1ccc(OC(=O)c2ccc(NC(=N)N)cc2)c(F)c1 [Example 96]
pIC50 [1]: 4.21

N=C(N)Nc1ccc(C(=O)Oc2cc(C(F)(F)F)cc(C(F)(F)F)c2)cc1 [Example 47]
pIC50 [1]: 5.49

COCc1cc(O)cc(OC(=O)c2ccc(NC(=N)N)cc2)c1 [Example 12]
pIC50 [1]: < 3.70 | inhibition at 100 µM (Y represents an oxygen atom): 14%

COc1cc(OC)cc(OC(=O)c2ccc(NC(=N)N)cc2)c1 [Example 10]
pIC50 [1]: 4.40

CNC(=O)c1cc(OC(=O)c2ccc(NC(=N)N)cc2)cc(OC(=O)c2ccc(NC(=N)N)cc2)c1 [Example 82]
inhibition at 100 µM (Y represents an oxygen atom): 38%

CCNC(=O)Oc1cc(Cl)cc(OC(=O)c2ccc(NC(=N)N)cc2)c1 [Example 88]
pIC50: 5.96

CCS(=O)(=O)Oc1cc(COC)cc(OC(=O)c2ccc(NC(=N)N)cc2)c1 [Example 11]
pIC50 [1]: 4.22 | inhibition at 100 µM (Y represents an oxygen atom): 66%

CC(C)OC(=O)c1cccc(OC(=O)c2ccc(NC(=N)N)cc2)c1Cl [Example 21]
pIC50 [1]: 5.70

CS(=O)(=O)c1ccc(OC(=O)c2ccc(NC(=N)N)cc2)cc1 [Example 72]
pIC50 [1]: < 4.00

COC(=O)Cc1ccc(OC(=O)c2ccc(NC(=N)N)cc2)c(Cl)c1 [Example 25]
inhibition at 100 µM (Y represents an oxygen atom): 40%

N=C(N)Nc1ccc(C(=O)Oc2cc(O)cc(OC(=O)c3ccc(NC(=N)N)cc3)c2)cc1 [Example 113]
inhibition at 100 µM (Y represents an oxygen atom): 42%

COC(=O)c1ccc(OC(=O)c2ccc(NC(=N)N)cc2)c(Cl)c1 [Example 15]
pIC50 [1]: 4.01 | inhibition at 100 µM (Y represents an oxygen atom): 55.6%

CCN(CC)S(=O)(=O)c1ccccc1OC(=O)c1ccc(NC(=N)N)cc1 [Example 91]
pIC50 [1]: 3.74

N=C(N)Nc1ccc(C(=O)Sc2ccccc2Br)cc1 [Example 138]
pIC50 [2]: 5.80 | inhibition at 50 µg/mL (Y represents a sulfur atom): 83.1%

CNC(=O)c1cccc(OC(=O)c2ccc(NC(=N)N)cc2)c1Cl [Example 81]
pIC50 [1]: 5.22

COc1cccc(OC(=O)c2ccc(NC(=N)N)cc2)c1 [Example 8]
pIC50 [1]: 4.00 | inhibition at 100 µM (Y represents an oxygen atom): 50.9%

N=C(N)Nc1ccc(C(=O)Sc2ccc(F)cc2)cc1 [Example 131]
pIC50 [2]: 4.68 | inhibition at 50 µg/mL (Y represents a sulfur atom): 83%

N=C(N)Nc1ccc(C(=O)Oc2cc(Cl)cc(C(N)=O)c2)cc1 [Example 79]
pIC50 [1]: 5.28

N=C(N)Nc1ccc(C(=O)Sc2ccc(C(=O)O)cc2)cc1 [Example 139]
inhibition at 50 µg/mL (Y represents a sulfur atom): 23.2%

CC(=O)c1ccc(Cl)cc1OC(=O)c1ccc(NC(=N)N)cc1 [Example 51]
pIC50 [1]: 5.74

N=C(N)Nc1ccc(C(=O)Oc2c(F)cccc2F)cc1 [Example 31]
pIC50 [1]: 5.43

CCOC(=O)Cc1ccc(SC(=O)c2ccc(NC(=N)N)cc2)cc1 [Example 144]
inhibition at 50 µg/mL (Y represents a sulfur atom): 75.5%

COc1ccc(SC(=O)c2ccc(NC(=N)N)cc2)cc1 [Example 130]
inhibition at 50 µg/mL (Y represents a sulfur atom): 48.2%

CS(=O)(=O)Nc1ccc(Cl)c(OC(=O)c2ccc(NC(=N)N)cc2)c1 [Example 105]
pIC50 [1]: 5.07

N=C(N)Nc1ccc(C(=O)Oc2ccccc2Cl)cc1 [Example 34]
pIC50 [1]: 4.57 | inhibition at 100 µM (Y represents an oxygen atom): 76.8%

N=C(N)Nc1ccc(C(=O)Sc2c(Cl)cccc2Cl)cc1 [Example 136]
pIC50 [2]: 4.35 | inhibition at 50 µg/mL (Y represents a sulfur atom): 64.5%
